# Reference: US20080085833A1, “Use Of Glycerol As An Anti-Moss And/Or Anti-Lichen Agent” (priority 2004, published 2008)
# Tested on: mosses and lichens
# Assay: Anti-moss and anti-lichen effect of glycerol-based compositions, overall observation on mosses and lichens
# Type: in vivo
# Text: An anti-moss and/or anti-lichen composition is first prepared by solubilizing the required amount of glycerol in water at room temperature, in an appropriate vessel, to give a solution containing 99%, 65% or 20% by weight of glycerol.
# The anti-moss and/or anti-lichen composition is maintained at this same temperature in a vessel fitted with a nozzle to enable the product to be sprayed onto a vertical or horizontal surface.
# A sufficient amount of anti-moss and/or anti-lichen composition containing 99%, 65% or 20% by weight of glycerol, with or without gluconic acid, is applied by the process of the invention to 3 different surfaces covered with crustaceous lichens, gelatinous lichens and mosses.
# For the series of 3 treatments, visual observations were made periodically after treatment with the glycerol compositions described, and then at regular intervals for 3 weeks.
smiles,measurement,setting,value
"OCC(O)CO [Pure glycerol, glycerol]",anti-moss and/or anti-lichen activity on dilution,glycerol diluted to 20%,without losing its anti-moss and/or anti-lichen activity
same,efficacy for removing mosses and/or lichens,pure glycerol,effective
